# Laboratory results: paper PMC7822176, “Pursuing the Complexity of Alzheimer’s Disease: Discovery of Fluoren-9-Amines as Selective Butyrylcholinesterase Inhibitors and N-Methyl-D-Aspartate Receptor Antagonists” (Biomolecules, 2020)
# Structures can show the parent of a compound that is named as a salt. Where two headings read alike, the source gives them in different places.
# Experiments:
# hCMEC/D3 cell monolayer = assay: in vitro
# Protocol: (§1) The D3 assay evaluates the ability of compounds to diffuse from the donor compartment through the D3/hCMEC cell membrane into the acceptor compartment. The D3 cells were seeded on a PET membrane (area 1.12 cm^2) with 3-µm pores of the 12-well plates with 12-mm inserts. […] The donor solution (750 µL) was added to the donor compartment (insert), and the same volume of Opti-MEM was added into the acceptor. The concentration of the drug in both compartments was measured by UV-VIS spectrophotometry in 5, 15, 30, and 60 min of incubation in triplicates. The apparent permeability coefficient (Papp) was calculated from the concentration ratios. Tightness of the D3 monolayer was conducted by the fluorescein isothiocyanate (FITC) test after each experiment. […] (1) Papp= dC/dt × Vr/A × C0 • A: area of the well/cell monolayer, • dC/dt: amount in the receiver compartment in given time, • Vr: volume of the receiver compartment, and • C0: the initial concentration of tested compounds.
# in vitro = settings: human
# Protocol: as §1
# [1] = MTT cell viability assay, CHO-K1; assay type: cell-based; settings: Chinese hamster, CHO-K1 cells, 24 h exposure, mean of three independent measurements, read-out: IC50 ± SEM CHO-K1 cell viability
# Protocol: Standard MTT assay (3-(4,5-dimethylthiazol-2-yl)-2,5-diphenyltetrazolium bromide; Sigma Aldrich, Prague, Czech Republic) was used according to the manufacturer’s protocols on the CHO-K1 (Chinese hamster ovary, ECACC, Salisbury, UK) and hCMEC/D3 (Sigma Aldrich, St. Louis, MO, USA). The cells were cultured according to recommended conditions and seeded in a density of 8000 cells per well, as described previously. […] CHO-K1 cells were exposed to serially diluted tested compounds for 24 h. Then, the medium was replaced by a fresh medium containing 0.5 mg/mL of MTT, and the cells were allowed to produce formazan for another approximately 3 h under surveillance. Thereafter, the medium with MTT was removed, and crystals of formazan were dissolved in DMSO (100 µL/well; PENTA s.r.o., Prague, Czech Republic). Cell viability was assessed spectrophotometrically by the amount of formazan produced. The absorbance was measured at 570 nm with a 650-nm reference wavelength on Synergy HT (BioTek, Winooski, VT, USA). The IC50 value (half-maximal inhibitory concentration) was calculated from the control-subtracted triplicates using nonlinear regression (four parameters) by GraphPad Prism 7.03 software (GraphPad Software Inc., San Diego, CA, USA) for the CHO-K1 cell line, and for hCMEC/D3 cells, the cell viability was expressed as the % relative to the untreated control. Final IC50 and SEM (standard error of the mean) values were obtained as a mean of three independent measurements.
# GluN1/GluN2A receptors = target: T1, GluN1/GluN2A receptors (Homo sapiens, UniProt Q05586+Q12879); assay: cell-based; settings: for inhibition at 10 µM: HEK293, read-out: RI (%) ± SEM GluN1/GluN2A
# T1 construct: expressed in transfected cells; host or cells: HEK293
# Protocol: (§2) The cells grown in a 24-well plate were put in Opti-MEM I media containing a mixture of 0.9 µL of MATra-A Reagent (IBA) and 900 ng of DNA vectors carrying the human versions of the GluN1-1a (GluN1), GluN2A, or GluN2B subunits and green fluorescent protein (GFP; all vectors were added in equal ratio). The cells were placed on a strong magnet plate for 30 min and then trypsinized; resuspended in Opti-MEM I containing 1% FBS, 20-mM MgCl2, and 3-mM kynurenic acid (to inhibit the NMDAR-induced excitotoxicity); and plated on poly-L-lysine-coated glass coverslips. The electrophysiological experiments were executed 24–48 h after transfection.
# (§3) Whole-cell patch-clamp recordings were conducted at room temperature on the GFP-positive HEK293 cells using an Axopatch 200B amplifier (Molecular Devices, San Jose, CA, USA); the series resistance compensation was >80% for all cells. […] The WAS02 application system, which can reach the solution exchange time around the recorded cell of 10–20 ms, was used to apply the extracellular solution (ECS).
# GluN1/GluN2B receptors = target: T2, GluN1/GluN2B receptors (Homo sapiens, UniProt Q05586+Q13224); assay: cell-based; settings: for inhibition at 10 µM: HEK293, read-out: RI (%) ± SEM GluN1/GluN2B
# T2 construct: expressed in transfected cells; host or cells: HEK293
# Protocol: as §2, §3
# hBChE = target: T3, hBChE (Homo sapiens, UniProt P06276); assay: biochemical; assay type: biochemical
# T3 construct: made in house
# Protocol: The human recombinant BChE and AChE were prepared at the Department of Toxicology and Military Pharmacy (Faculty of Military Health Sciences, Hradec Kralove, Czech Republic). 5,5′-dithiobis(2-nitrobenzoic acid) (Ellman’s reagent, DTNB), phosphate buffer (PB, pH 7.4), acetylthiocholine (ATC), and butyrylthiocholine (BTC) were purchased from Sigma-Aldrich, Prague, Czech Republic. For measuring purposes, polystyrene Nunc 96-well microplates with a flat bottom shape (Thermo Fisher Scientific, Waltham, MA, USA) were utilized. All the assays were carried out in 0.1-M KH2PO4/K2HPO4 buffer, pH 7.4. Enzyme solutions were prepared at 2.0 units/mL in 2-mL aliquots. […] Tested compounds were preincubated for 5 min. The reaction was started by the immediate addition of 20 µL of the substrate. […] Each concentration was assayed in triplicate. Software GraphPad Prism 5 (San Diego, CA, USA) was used for the statistical data evaluation.
# [2] = final prediction from Papp correlated to reference drugs
# [3] = mean of at least three experiments, read-out: IC50 ± SEM hBChE
# T1 sequence (Q12879 23-1464, other chains not shown): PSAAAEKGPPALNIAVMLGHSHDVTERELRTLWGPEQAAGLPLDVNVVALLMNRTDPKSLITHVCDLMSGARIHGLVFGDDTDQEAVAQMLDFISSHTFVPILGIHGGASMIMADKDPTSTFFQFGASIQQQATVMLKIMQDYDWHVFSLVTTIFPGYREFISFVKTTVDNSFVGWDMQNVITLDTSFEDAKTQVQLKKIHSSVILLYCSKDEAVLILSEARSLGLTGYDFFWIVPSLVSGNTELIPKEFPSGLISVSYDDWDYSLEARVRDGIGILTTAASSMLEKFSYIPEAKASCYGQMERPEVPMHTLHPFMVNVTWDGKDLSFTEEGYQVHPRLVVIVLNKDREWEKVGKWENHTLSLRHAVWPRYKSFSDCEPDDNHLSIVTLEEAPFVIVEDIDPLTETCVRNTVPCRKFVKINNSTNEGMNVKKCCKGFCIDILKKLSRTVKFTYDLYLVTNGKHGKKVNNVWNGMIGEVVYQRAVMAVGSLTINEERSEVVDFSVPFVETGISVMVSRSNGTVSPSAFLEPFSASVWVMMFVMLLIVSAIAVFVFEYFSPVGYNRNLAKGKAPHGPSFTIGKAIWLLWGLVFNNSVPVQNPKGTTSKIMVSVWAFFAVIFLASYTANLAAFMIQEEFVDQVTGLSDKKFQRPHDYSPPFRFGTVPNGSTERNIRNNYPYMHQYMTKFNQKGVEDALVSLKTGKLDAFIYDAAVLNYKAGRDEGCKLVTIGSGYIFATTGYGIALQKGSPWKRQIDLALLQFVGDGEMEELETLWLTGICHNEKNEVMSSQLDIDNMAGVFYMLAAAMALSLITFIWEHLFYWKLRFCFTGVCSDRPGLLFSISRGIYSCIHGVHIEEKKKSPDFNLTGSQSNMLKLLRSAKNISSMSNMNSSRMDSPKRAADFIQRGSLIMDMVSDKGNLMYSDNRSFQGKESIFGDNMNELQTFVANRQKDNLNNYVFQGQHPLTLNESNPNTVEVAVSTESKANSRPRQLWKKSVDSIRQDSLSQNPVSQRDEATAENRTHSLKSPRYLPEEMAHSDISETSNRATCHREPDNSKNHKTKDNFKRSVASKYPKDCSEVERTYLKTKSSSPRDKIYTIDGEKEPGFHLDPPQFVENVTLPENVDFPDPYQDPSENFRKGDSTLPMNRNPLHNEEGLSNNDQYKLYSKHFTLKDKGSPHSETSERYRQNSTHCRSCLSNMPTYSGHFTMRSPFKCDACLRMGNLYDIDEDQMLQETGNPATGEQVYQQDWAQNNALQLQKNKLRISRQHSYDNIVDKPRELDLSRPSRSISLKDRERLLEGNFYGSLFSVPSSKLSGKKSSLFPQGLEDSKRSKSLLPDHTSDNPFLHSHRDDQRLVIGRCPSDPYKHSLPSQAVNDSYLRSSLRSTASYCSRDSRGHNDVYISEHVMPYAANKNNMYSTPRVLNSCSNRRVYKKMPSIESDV
# T2 sequence (Q13224 27-1484, other chains not shown): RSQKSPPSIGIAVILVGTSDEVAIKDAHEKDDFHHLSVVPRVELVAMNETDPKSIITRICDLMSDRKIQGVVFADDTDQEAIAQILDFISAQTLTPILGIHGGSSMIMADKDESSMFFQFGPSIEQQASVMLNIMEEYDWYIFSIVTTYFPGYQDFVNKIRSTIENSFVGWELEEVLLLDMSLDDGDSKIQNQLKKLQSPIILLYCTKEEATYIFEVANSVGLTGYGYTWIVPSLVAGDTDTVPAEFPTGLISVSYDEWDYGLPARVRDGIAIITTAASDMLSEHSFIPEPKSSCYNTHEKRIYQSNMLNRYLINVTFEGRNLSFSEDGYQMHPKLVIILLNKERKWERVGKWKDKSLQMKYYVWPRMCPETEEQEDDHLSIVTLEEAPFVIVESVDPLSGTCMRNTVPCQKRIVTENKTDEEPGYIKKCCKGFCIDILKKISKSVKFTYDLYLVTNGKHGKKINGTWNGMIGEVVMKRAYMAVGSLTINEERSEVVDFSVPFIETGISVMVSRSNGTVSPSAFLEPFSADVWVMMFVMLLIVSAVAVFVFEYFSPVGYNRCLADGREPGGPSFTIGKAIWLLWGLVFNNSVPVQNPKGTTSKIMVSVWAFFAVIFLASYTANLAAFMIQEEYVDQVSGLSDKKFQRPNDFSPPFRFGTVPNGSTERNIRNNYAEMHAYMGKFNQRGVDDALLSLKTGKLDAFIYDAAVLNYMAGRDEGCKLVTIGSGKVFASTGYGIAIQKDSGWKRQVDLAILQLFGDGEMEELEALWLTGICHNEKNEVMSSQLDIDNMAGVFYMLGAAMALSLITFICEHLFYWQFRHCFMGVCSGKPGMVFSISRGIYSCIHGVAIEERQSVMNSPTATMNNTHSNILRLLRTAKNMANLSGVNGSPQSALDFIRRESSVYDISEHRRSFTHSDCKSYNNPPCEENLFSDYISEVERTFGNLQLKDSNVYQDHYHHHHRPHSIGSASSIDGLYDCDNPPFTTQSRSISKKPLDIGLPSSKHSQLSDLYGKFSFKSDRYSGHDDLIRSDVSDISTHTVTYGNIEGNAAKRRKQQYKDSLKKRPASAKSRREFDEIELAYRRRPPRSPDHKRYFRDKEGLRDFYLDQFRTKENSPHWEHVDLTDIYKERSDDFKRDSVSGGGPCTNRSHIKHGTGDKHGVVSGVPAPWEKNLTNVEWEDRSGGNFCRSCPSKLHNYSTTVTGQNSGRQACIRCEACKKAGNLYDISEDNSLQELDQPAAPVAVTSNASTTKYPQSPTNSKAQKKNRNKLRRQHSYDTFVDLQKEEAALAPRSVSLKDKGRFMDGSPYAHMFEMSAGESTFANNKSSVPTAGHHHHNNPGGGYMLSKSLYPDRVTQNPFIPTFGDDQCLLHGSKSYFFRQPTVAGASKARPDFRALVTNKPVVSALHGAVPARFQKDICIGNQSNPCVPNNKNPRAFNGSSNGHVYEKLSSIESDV
# T3 sequence (P06276 29-602): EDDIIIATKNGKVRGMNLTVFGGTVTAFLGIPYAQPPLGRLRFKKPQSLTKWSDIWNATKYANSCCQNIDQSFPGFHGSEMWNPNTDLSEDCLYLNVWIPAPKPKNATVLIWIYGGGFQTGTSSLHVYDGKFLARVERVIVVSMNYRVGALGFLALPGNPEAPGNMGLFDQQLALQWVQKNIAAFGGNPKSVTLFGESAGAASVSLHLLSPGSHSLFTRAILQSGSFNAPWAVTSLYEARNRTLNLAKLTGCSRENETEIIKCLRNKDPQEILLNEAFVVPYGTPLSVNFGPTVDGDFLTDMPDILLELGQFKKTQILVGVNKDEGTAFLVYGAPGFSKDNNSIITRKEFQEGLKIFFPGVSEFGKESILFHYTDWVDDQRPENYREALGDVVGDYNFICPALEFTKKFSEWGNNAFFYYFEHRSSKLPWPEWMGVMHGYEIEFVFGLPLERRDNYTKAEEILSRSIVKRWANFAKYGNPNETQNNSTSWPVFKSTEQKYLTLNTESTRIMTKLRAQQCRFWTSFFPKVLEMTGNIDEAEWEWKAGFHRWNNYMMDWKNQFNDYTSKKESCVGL
SMILES,IC50 at 24 h [1] [µM],inhibition at 10 µM (GluN1/GluN2A receptors) [%],inhibition at 10 µM (GluN1/GluN2B receptors) [%],IC50 (hBChE; [3]) [µM],also measured
"Cc1cc(=O)n(-c2ccccc2)n1C [Antipyrine, reference compound]",–,–,–,–,CNS (+/−) (hCMEC/D3 cell monolayer; [2]): CNS +; Papp (in vitro): 17.2 ± 1.82 ×10⁻⁶ cm/s
"CC(C)NC1c2ccccc2-c2ccccc21 [Compound 3a, N-Propan-2-yl-9H-fluoren-9-amine hydrochloride]",387 ± 32,33.3 ± 1.66,25 ± 1.82,–,–
"CNC1c2ccccc2-c2ccccc21 [Compound 3b, N-Methyl-9H-fluoren-9-amine hydrochloride]",427 ± 12,36.2 ± 2.16,18 ± 0.78,8.91 ± 0.31,–
"c1ccc2c(c1)-c1ccccc1C2NC1CC1 [Compound 3d, N-Cyclopropyl-9H-fluoren-9-amine hydrochloride]",353 ± 32,26.6 ± 0.85,14.3 ± 0.35,6.42 ± 0.22,–
"c1ccc2c(c1)-c1ccccc1C2N1CCCCC1 [Compound 3f, 1-(9H-fluoren-9-yl)piperidine hydrochloride]",872 ± 10,33 ± 1.96,19.4 ± 2.65,2.13 ± 0.06,–
"COCCNC1c2ccccc2-c2ccccc21 [Compound 3g, N-(2-methoxyethyl)-9H-fluoren-9-amine hydrochloride]",738 ± 1,18.7 ± 1.98,6.76 ± 1,2.56 ± 0.11,–
"CCNC1c2ccccc2-c2ccccc21 [Compound 3h, N-Ethyl-9H-fluoren-9-amine hydrochloride]",417 ± 16,26.9 ± 2.14,17.5 ± 2.46,6.58 ± 0.19,–
"CCN(CC)C1c2ccccc2-c2ccccc21 [Compound 3i, N,N-Diethyl-9H-fluoren-9-amine hydrochloride]",266 ± 3,25.7 ± 1.92,20.1 ± 2.82,5.38 ± 0.11,–
"CN1CCN(C2c3ccccc3-c3ccccc32)CC1 [Compound 3j, 1-(9H-fluorene-9-yl)-4-methylpiperazine dihydrochloride]",259 ± 12,29.1 ± 2.85,21.9 ± 2.1,–,IC50 (hBChE): 23.5 ± 0.8 µM
"CCN1CCN(C2c3ccccc3-c3ccccc32)CC1 [Compound 3k, 1-(9H-fluorene-9-yl)-4-ethylpiperazine dihydrochloride]",239 ± 35,32.1 ± 1.01,19.1 ± 1.48,12.8 ± 0.3,–
"c1ccc2c(c1)-c1ccccc1C2N1CCOCC1 [Compound 3l, 4-(9H-fluorene-9-yl)morpholine hydrochloride]",> 800,14.9 ± 1.76,11.6 ± 0.52,54.7 ± 1.9,–
"c1ccc2c(c1)-c1ccccc1C2N1CCCC1 [Compound 3o, 1-(9H-fluoren-9-yl)pyrrolidine hydrochloride]",413 ± 15,27.8 ± 1.74,32.4 ± 2.99,1.8 ± 0.06,–
"CC12CC3CC(C)(C1)CC(N)(C3)C2 [Memantine, memantine, reference compound]",–,–,–,–,h 40 mV GluN1/GluN2A (Hill coefficient) (GluN1/GluN2A receptors): 1.16 ± 0.05; h −60 mV GluN1/GluN2A (Hill coefficient) (GluN1/GluN2A receptors): 1.04 ± 0.06; h 40 mV GluN1/GluN2B (Hill coefficient) (GluN1/GluN2B receptors): 0.84 ± 0.04; h −60 mV GluN1/GluN2B (Hill coefficient) (GluN1/GluN2B receptors): 1.04 ± 0.03
"O/N=C/c1cc[n+](COC[n+]2ccc(/C=N/O)cc2)cc1 [Obidoxime, reference compound]",–,–,–,–,CNS (+/−) (hCMEC/D3 cell monolayer; [2]): CNS −; Papp (in vitro): 14.3 ± 0.52 ×10⁻⁶ cm/s
"CC(C)NCC(O)COc1cccc2ccccc12 (stereo not shown) [Propranolol, reference compound]",–,–,–,–,CNS (+/−) (hCMEC/D3 cell monolayer; [2]): CNS +; Papp (in vitro): 23.1 ± 2.06 ×10⁻⁶ cm/s
"CCN(C)C(=O)Oc1cccc([C@H](C)N(C)C)c1 [Rivastigmine, reference compound]",–,–,–,–,CNS (+/−) (hCMEC/D3 cell monolayer): CNS +; Papp (in vitro): 28.6 ± 4.64 ×10⁻⁶ cm/s
